Laboratory results as given in patent US20240239861A1, “GLUCAGON-RECEPTOR SELECTIVE POLYPEPTIDES AND METHODS OF USE THEREOF” (i2O Therapeutics, Inc., priority 2016, published 2024).
*1 amine or outer side, *2 acyl side, *3 side chain or, on linkers, in order; H or OH if unused. Where a SMILES comes first, the peptide text is derived from it. Side-chain parts run from the residue outwards. [ ]: non-standard residue; d: D form. The star is where a group is joined. γGlu = O=C(O)[C@H](CCC(=O)[*:2])N[*:1]; Palmitoyl = CCCCCCCCCCCCCCCC(=O)*; Aib = CC(C)(N)C(=O)O

Tests used:
[1] = target: human GCGR (Homo sapiens, UniProt P47871); assay: Peptide-receptor mediated cAMP accumulation (LANCE Ultra cAMP) in CHO-K1 cells transfected with human GCGR; type: cell-based; details: read-out: GluR pEC50 (converted)
human GCGR, sequence (P47871 26-477): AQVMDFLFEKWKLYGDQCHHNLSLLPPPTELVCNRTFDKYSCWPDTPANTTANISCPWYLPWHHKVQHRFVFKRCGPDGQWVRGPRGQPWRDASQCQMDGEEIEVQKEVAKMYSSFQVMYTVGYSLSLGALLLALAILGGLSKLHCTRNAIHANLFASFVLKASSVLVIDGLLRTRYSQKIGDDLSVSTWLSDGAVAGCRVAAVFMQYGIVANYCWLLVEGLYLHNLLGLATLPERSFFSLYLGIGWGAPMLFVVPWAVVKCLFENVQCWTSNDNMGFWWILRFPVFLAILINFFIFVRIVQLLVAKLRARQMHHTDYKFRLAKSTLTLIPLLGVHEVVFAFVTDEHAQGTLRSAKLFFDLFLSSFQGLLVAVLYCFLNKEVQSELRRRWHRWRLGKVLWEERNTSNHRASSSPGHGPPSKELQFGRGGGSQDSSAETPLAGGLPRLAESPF

[2] = target: human GLP-1R (Homo sapiens, UniProt P43220); assay: Peptide-receptor mediated cAMP accumulation (LANCE Ultra cAMP) in CHO-K1 cells transfected with human GLP-1R; type: cell-based; details: Table 7; GLP-1R; read-out: GLP-1R pEC50 (converted)
human GLP-1R, sequence (P43220 24-463): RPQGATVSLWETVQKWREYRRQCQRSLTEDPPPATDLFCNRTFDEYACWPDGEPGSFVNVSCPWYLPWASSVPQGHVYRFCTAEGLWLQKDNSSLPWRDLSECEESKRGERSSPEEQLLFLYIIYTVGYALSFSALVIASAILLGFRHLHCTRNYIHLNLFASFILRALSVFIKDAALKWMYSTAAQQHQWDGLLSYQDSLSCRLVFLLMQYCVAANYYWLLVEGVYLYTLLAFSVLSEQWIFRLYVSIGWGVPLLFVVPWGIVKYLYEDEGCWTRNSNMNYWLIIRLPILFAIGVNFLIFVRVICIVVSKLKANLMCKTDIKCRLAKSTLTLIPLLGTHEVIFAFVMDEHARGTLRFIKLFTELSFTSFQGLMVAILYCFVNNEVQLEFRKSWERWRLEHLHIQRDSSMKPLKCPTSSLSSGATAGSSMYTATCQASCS

SMILES | EC50 [1] [nM] | EC50 [2] [nM]
CCCCCCCCCCCCCCCC(=O)N[C@@H](CCC(=O)NCCCC[C@H](NC(=O)[C@H](CC(=O)O)NC(=O)[C@H](CC(C)C)NC(=O)[C@H](Cc1ccc(O)cc1)NC(=O)[C@H](CCCCN)NC(=O)[C@H](CO)NC(=O)[C@H](Cc1ccc(O)cc1)NC(=O)[C@H](CC(=O)O)NC(=O)[C@H](CO)NC(=O)[C@@H](NC(=O)[C@H](Cc1ccccc1)NC(=O)[C@@H](NC(=O)CNC(=O)[C@H](Cc1c[nH]cn1)NC(=O)[C@H](CO)NC(=O)[C@@H](N)Cc1ccc(O)cc1)[C@@H](C)O)[C@@H](C)O)C(=O)N[C@@H](CCCCN)C(=O)N[C@@H](CCCNC(=N)N)C(=O)N[C@@H](C)C(=O)N[C@@H](CCC(N)=O)C(=O)N[C@@H](CCC(=O)O)C(=O)N[C@@H](Cc1ccccc1)C(=O)N[C@H](C(=O)N[C@H](C(=O)N[C@@H](Cc1c[nH]c2ccccc12)C(=O)N[C@@H](CC(C)C)C(=O)N[C@@H](CCC(=O)O)C(=O)N[C@@H](CC(=O)O)C(=O)N[C@@H](CCC(=O)O)C(=O)N1CCC[C@H]1C(=O)N[C@@H](CO)C(=O)N[C@@H](CO)C(=O)NCC(=O)N[C@@H](C)C(=O)N1CCC[C@H]1C(=O)N1CCC[C@H]1C(=O)N1CCC[C@H]1C(=O)N[C@@H](CO)C(=O)O)[C@@H](C)CC)C(C)C)C(=O)O [Compound B26] | 0.01 | > 1000
CCCCCCCCCCCCCCCC(=O)N[C@@H](CCC(=O)NCCCC[C@H](NC(=O)[C@H](CC(=O)O)NC(=O)[C@H](CO)NC(=O)[C@@H](NC(=O)[C@H](Cc1ccccc1)NC(=O)[C@@H](NC(=O)CNC(=O)[C@H](Cc1c[nH]cn1)NC(=O)[C@H](CO)NC(=O)[C@@H](N)Cc1ccc(O)cc1)[C@@H](C)O)[C@@H](C)O)C(=O)N[C@@H](CO)C(=O)N[C@@H](CCCCN)C(=O)N[C@@H](Cc1ccc(O)cc1)C(=O)N[C@@H](CC(C)C)C(=O)N[C@@H](CC(=O)O)C(=O)NC(C)(C)C(=O)N[C@@H](CCCCN)C(=O)N[C@@H](CCCNC(=N)N)C(=O)N[C@@H](C)C(=O)N[C@@H](CCC(N)=O)C(=O)N[C@@H](CCC(=O)O)C(=O)N[C@@H](Cc1ccccc1)C(=O)N[C@H](C(=O)N[C@H](C(=O)N[C@@H](Cc1c[nH]c2ccccc12)C(=O)N[C@@H](CC(C)C)C(=O)N[C@@H](CCC(=O)O)C(=O)N[C@@H](CC(=O)O)C(=O)N[C@@H](CCC(=O)O)C(=O)N1CCC[C@H]1C(=O)N[C@@H](CO)C(=O)N[C@@H](CO)C(=O)NCC(=O)N[C@@H](C)C(=O)N1CCC[C@H]1C(=O)N1CCC[C@H]1C(=O)N1CCC[C@H]1C(=O)N[C@@H](CO)C(=O)O)[C@@H](C)CC)C(C)C)C(=O)O [Compound B27] (H-YSHGTFTSDK([γGlu-Palmitoyl])SKYLD[Aib]KRAQEFVIWLEDEPSSGAPPPS-OH) | 0.00316 | 251
CCCCCCCCCCCCCCCC(=O)N[C@@H](CCC(=O)NCCCC[C@H](NC(=O)[C@@H](NC(=O)[C@H](Cc1ccccc1)NC(=O)[C@H](CCC(=O)O)NC(=O)[C@H](CCC(N)=O)NC(=O)[C@H](C)NC(=O)[C@H](CCCNC(=N)N)NC(=O)[C@H](C)NC(=O)[C@H](C)NC(=O)[C@H](CC(=O)O)NC(=O)[C@H](CC(C)C)NC(=O)[C@H](Cc1ccc(O)cc1)NC(=O)[C@H](CCCCN)NC(=O)[C@H](CO)NC(=O)[C@H](Cc1ccc(O)cc1)NC(=O)[C@H](CC(=O)O)NC(=O)[C@H](CO)NC(=O)[C@@H](NC(=O)[C@H](Cc1ccccc1)NC(=O)[C@@H](NC(=O)CNC(=O)[C@H](CCC(N)=O)NC(=O)[C@H](CO)NC(=O)[C@@H](N)Cc1ccc(O)cc1)[C@@H](C)O)[C@@H](C)O)C(C)C)C(=O)N[C@@H](Cc1c[nH]c2ccccc12)C(=O)N[C@@H](CC(C)C)C(=O)N[C@@H](CCC(=O)O)C(=O)N[C@@H](CC(=O)O)C(=O)N[C@@H](CCC(=O)O)C(=O)N1CCC[C@H]1C(=O)N[C@@H](CCCCN)C(=O)N[C@@H](CO)C(=O)N[C@@H](CCCCN)C(=O)N[C@@H](CO)C(=O)N1CCC[C@H]1C(=O)N1CCC[C@H]1C(=O)N1CCC[C@H]1C(=O)N[C@@H](CO)C(N)=O)C(=O)O [Compound B34] (H-YSQGTFTSDYSKYLDAARAQEFVK([γGlu-Palmitoyl])WLEDEPKSKSPPPS-NH2) | 0.158 | > 1000
CCCCCCCCCCCCCCCC(=O)N[C@@H](CCC(=O)NCCCC[C@H](NC(=O)[C@H](CC(=O)O)NC(=O)[C@H](CC(C)C)NC(=O)[C@H](Cc1ccc(O)cc1)NC(=O)[C@H](CCCCN)NC(=O)[C@H](CO)NC(=O)[C@H](Cc1ccc(O)cc1)NC(=O)[C@H](CC(=O)O)NC(=O)[C@H](CO)NC(=O)[C@@H](NC(=O)[C@H](Cc1ccccc1)NC(=O)[C@@H](NC(=O)CNC(=O)[C@H](CCC(N)=O)NC(=O)[C@H](CO)NC(=O)[C@@H](N)Cc1ccc(O)cc1)[C@@H](C)O)[C@@H](C)O)C(=O)N[C@@H](C)C(=O)N[C@@H](CCCNC(=N)N)C(=O)N[C@@H](C)C(=O)N[C@@H](CCC(N)=O)C(=O)N[C@@H](CCC(=O)O)C(=O)N[C@@H](Cc1ccccc1)C(=O)N[C@H](C(=O)N[C@@H](CCCCN)C(=O)N[C@@H](Cc1c[nH]c2ccccc12)C(=O)N[C@@H](CC(C)C)C(=O)N[C@@H](CCC(=O)O)C(=O)N[C@@H](CC(=O)O)C(=O)N[C@@H](CCC(=O)O)C(=O)N1CCC[C@H]1C(=O)N[C@@H](CCCCN)C(=O)N[C@@H](CO)C(=O)N[C@@H](CCCCN)C(=O)N[C@@H](CO)C(=O)N1CCC[C@H]1C(=O)N1CCC[C@H]1C(=O)N1CCC[C@H]1C(=O)N[C@@H](CO)C(N)=O)C(C)C)C(=O)O [Compound B35] (H-YSQGTFTSDYSKYLDK([γGlu-Palmitoyl])ARAQEFVKWLEDEPKSKSPPPS-NH2) | 0.00794 | 251
CCCCCCCCCCCCCCCC(=O)N[C@@H](CCC(=O)NCCCC[C@H](NC(=O)[C@H](CC(=O)O)NC(=O)[C@H](CO)NC(=O)[C@@H](NC(=O)[C@H](Cc1ccccc1)NC(=O)[C@@H](NC(=O)CNC(=O)[C@H](CCC(N)=O)NC(=O)[C@H](CO)NC(=O)[C@@H](N)Cc1ccc(O)cc1)[C@@H](C)O)[C@@H](C)O)C(=O)N[C@@H](CO)C(=O)N[C@@H](CCCCN)C(=O)N[C@@H](Cc1ccc(O)cc1)C(=O)N[C@@H](CC(C)C)C(=O)N[C@@H](CC(=O)O)C(=O)N[C@@H](C)C(=O)N[C@@H](C)C(=O)N[C@@H](CCCNC(=N)N)C(=O)N[C@@H](C)C(=O)N[C@@H](CCC(N)=O)C(=O)N[C@@H](CCC(=O)O)C(=O)N[C@@H](Cc1ccccc1)C(=O)N[C@H](C(=O)N[C@@H](CCCCN)C(=O)N[C@@H](Cc1c[nH]c2ccccc12)C(=O)N[C@@H](CC(C)C)C(=O)N[C@@H](CCC(=O)O)C(=O)N[C@@H](CC(=O)O)C(=O)N[C@@H](CCC(=O)O)C(=O)N1CCC[C@H]1C(=O)N[C@@H](CCCCN)C(=O)N[C@@H](CO)C(=O)N[C@@H](CCCCN)C(=O)N[C@@H](CO)C(=O)N1CCC[C@H]1C(=O)N1CCC[C@H]1C(=O)N1CCC[C@H]1C(=O)N[C@@H](CO)C(N)=O)C(C)C)C(=O)O [Compound B36] (H-YSQGTFTSDK([γGlu-Palmitoyl])SKYLDAARAQEFVKWLEDEPKSKSPPPS-NH2) | 0.00316 | 7.94
